Measured values taken from patent EP0148283A1, “Novel penicillanic acid derivatives” (F. HOFFMANN-LA ROCHE & CO. Aktiengesellschaft, priority 1983, dated 1985).
Where a name gives a salt, the structure may show the parent alone.

How the values were obtained:
Assay in all cases: In vitro antibacterial activity, MIC by broth dilution in 96-well trays
Type in all cases: cell-based
[1] = tested on: P.aeruginosa; conditions: Pseudomonas aeruginosa
Experimental: (§1) The in vitro antibacterial activity of the following compounds:
(§2) The diluted agents are dispensed in 100 µl amounts into the wells of a 96-well tray and used immediately or frozen at -10 to -70°C until needed. Using an automated inoculator, 1.5 µl of a 10^-2 dilution of an overnight culture is added to each well of the tray. The tops of the trays are then sealed using transparent tape and incubated overnight at 37°C. The trays are examined with the aid of a viewer. The lowest concentration at which no growth is observed is considered to be the minimum inhibitory concentration (MIC). [formula] [formula] [formula] [formula] [formula] [formula] [formula] [formula] [formula] [formula] [formula]

[2] = tested on: S. aureus; conditions: Staphylococcus aureus
Experimental: as §1, §2

[3] = tested on: S. faecalis; conditions: Enterococcus faecalis; S. faecalis C1
Experimental: as §1, §2

[4] = tested on: S. pneumoniae; conditions: Streptococcus pneumoniae
Experimental: as §1, §2

[5] = tested on: S. pyogenes; conditions: Streptococcus pyogenes
Experimental: as §1, §2

Q: How did the MIC ([1]; P.aeruginosa strain 503-56) turn out when `CC1(C)S[C@@H]2[C@H](N=CN3CCC(Cc4ncc[nH]4)CC3)C(=O)N2[C@H]1C(=O)O` [Q, [2S-(2alpha,5alpha,6beta)]-6-[[[4-(1H-imidazol-2-yl-methyl)-1-piperidinyl]methylene]amino]-3,3-dimethyl-7-oxo-4-thia-1-azabicyclo[3.2.0]heptane-2-carboxylic acid hydrochloride] was run?
A: 64 µg/mL

Q: And the MIC ([1]; P.aeruginosa strain 503-820)?
A: 128 µg/mL

Q: And the MIC ([1]; P.aeruginosa strain 5700)?
A: 0.125 µg/mL

Q: And the MIC ([1]; P.aeruginosa strain 5712)?
A: > 128 µg/mL

Q: What about the MIC ([1]; P.aeruginosa strain 6148B) of the same compound?
A: 128 µg/mL

Q: And the MIC ([1]; P.aeruginosa strain 8710)?
A: 128 µg/mL

Q: And the MIC ([1]; P.aeruginosa strain 8780)?
A: > 128 µg/mL

Q: What about the MIC ([1]; P.aeruginosa strain B) of the same compound?
A: 0.25 µg/mL

Q: What about the MIC ([1]; P.aeruginosa strain POW 151) of the same compound?
A: > 128 µg/mL

Q: And the MIC ([1]; P.aeruginosa strain Stone 130)?
A: > 128 µg/mL

Q: What about the MIC ([2]; S. aureus strain 1059B) of the same compound?
A: 128 µg/mL

Q: What about the MIC ([2]; S. aureus strain Giorgio) of the same compound?
A: 8 µg/mL

Q: What about the MIC ([2]; S. aureus strain Smith) of the same compound?
A: 8 µg/mL

Q: What about the MIC [3] of the same compound?
A: 128 µg/mL

Q: What about the MIC ([4]; S. pneumoniae strain 6301) of the same compound?
A: 1 µg/mL

Q: And the MIC ([4]; S. pneumoniae strain 6302)?
A: 2 µg/mL

Q: And the MIC ([4]; S. pneumoniae strain SC)?
A: 2 µg/mL

Q: What about the MIC ([5]; S. pyogenes strain 4) of the same compound?
A: 1 µg/mL

Q: What about the MIC ([5]; S. pyogenes strain 503-782) of the same compound?
A: 128 µg/mL

Q: `CC1(C)S[C@@H]2[C@H](N=CN3CCC(CCCn4ccnc4CO)CC3)C(=O)N2[C@H]1C(=O)O` [R, [2S-(2alpha,5alpha,6beta)]-6-[[[4-[3-[2-(hydroxy-methyl)-1H-imidazol-1-yl]propyl-1-piperidinyl]-methylene]amino]-3,3-dimethyl-7-oxo-4-thia-1-azabicyclo[3.2.0]heptane-2-carboxylic acid hydrochloride 1.1 molar hydrate] was tested. Which MIC ([1]; P.aeruginosa strain 503-56) did it give?
A: > 128 µg/mL

Q: What about the MIC ([1]; P.aeruginosa strain 503-820) of the same compound?
A: 128 µg/mL

Q: What about the MIC ([1]; P.aeruginosa strain 5700) of the same compound?
A: > 128 µg/mL

Q: And the MIC ([1]; P.aeruginosa strain 5712)?
A: > 128 µg/mL

Q: What about the MIC ([1]; P.aeruginosa strain 6148B) of the same compound?
A: 128 µg/mL

Q: And the MIC ([1]; P.aeruginosa strain 8710)?
A: > 128 µg/mL

Q: And the MIC ([1]; P.aeruginosa strain 8780)?
A: > 128 µg/mL

Q: And the MIC ([1]; P.aeruginosa strain B)?
A: 128 µg/mL

Q: And the MIC ([1]; P.aeruginosa strain POW 151)?
A: > 128 µg/mL

Q: And the MIC ([1]; P.aeruginosa strain Stone 130)?
A: > 128 µg/mL

Q: What about the MIC ([2]; S. aureus strain 1059B) of the same compound?
A: 64 µg/mL

Q: What about the MIC ([2]; S. aureus strain Giorgio) of the same compound?
A: 8 µg/mL

Q: What about the MIC ([2]; S. aureus strain Smith) of the same compound?
A: 8 µg/mL

Q: And the MIC [3]?
A: 128 µg/mL

Q: What about the MIC ([4]; S. pneumoniae strain 6301) of the same compound?
A: 1 µg/mL

Q: What about the MIC ([4]; S. pneumoniae strain 6302) of the same compound?
A: 1 µg/mL

Q: What about the MIC ([4]; S. pneumoniae strain SC) of the same compound?
A: 0.5 µg/mL

Q: What about the MIC ([5]; S. pyogenes strain 4) of the same compound?
A: 0.5 µg/mL

Q: And the MIC ([5]; S. pyogenes strain 503-782)?
A: 128 µg/mL

Q: Which MIC ([1]; P.aeruginosa strain 503-56) does the source give for `CN(C)C=Nc1nccn1CCCC1CCN(C=N[C@@H]2C(=O)N3[C@@H]2SC(C)(C)[C@@H]3C(=O)O)CC1` [S, [2S-(2alpha,5alpha,6beta)]-6-[[[4-[3-[2-[[(dimethylamino)methylene]amino]-1H-imidazol-1-yl]propyl]-1-piperidinyl]methylene]amino]-3,3-dimethyl-7-oxo-4-thia-1-azabicyclo[3.2.0]heptane-2-carboxylic acid 1.7 molar hydrochloride 2.6 molar hydrate] here?
A: > 128 µg/mL

Q: And the MIC ([1]; P.aeruginosa strain 503-820)?
A: > 128 µg/mL

Q: What about the MIC ([1]; P.aeruginosa strain 5700) of the same compound?
A: > 128 µg/mL

Q: And the MIC ([1]; P.aeruginosa strain 5712)?
A: > 128 µg/mL

Q: And the MIC ([1]; P.aeruginosa strain 6148B)?
A: > 128 µg/mL

Q: What about the MIC ([1]; P.aeruginosa strain 8710) of the same compound?
A: > 128 µg/mL

Q: And the MIC ([1]; P.aeruginosa strain 8780)?
A: > 128 µg/mL

Q: What about the MIC ([1]; P.aeruginosa strain B) of the same compound?
A: > 128 µg/mL

Q: What about the MIC ([1]; P.aeruginosa strain POW 151) of the same compound?
A: > 128 µg/mL

Q: What about the MIC ([1]; P.aeruginosa strain Stone 130) of the same compound?
A: > 128 µg/mL

Q: And the MIC ([2]; S. aureus strain 1059B)?
A: 64 µg/mL

Q: And the MIC ([2]; S. aureus strain Giorgio)?
A: 8 µg/mL

Q: What about the MIC ([2]; S. aureus strain Smith) of the same compound?
A: 8 µg/mL

Q: And the MIC [3]?
A: 128 µg/mL

Q: What about the MIC ([4]; S. pneumoniae strain 6301) of the same compound?
A: 2 µg/mL

Q: What about the MIC ([4]; S. pneumoniae strain 6302) of the same compound?
A: 1 µg/mL

Q: And the MIC ([4]; S. pneumoniae strain SC)?
A: 0.5 µg/mL

Q: And the MIC ([5]; S. pyogenes strain 4)?
A: 0.25 µg/mL

Q: What about the MIC ([5]; S. pyogenes strain 503-782) of the same compound?
A: 128 µg/mL
